# Experimental data published in patent US20250304563A1, “ACTIVATORS OF EFFECTOR T CELLS” (Orum Therapeutics, Inc., priority 2022, published 2025).
# Tests used:
# [1] = target: Cbl-b (36-427 aa truncated form, N-terminus Avi-tag) (Homo sapiens (Human), UniProt Q13191); experiment: Cbl-b binding: TR-FRET displacement of BODIPY-FL probe
# Summary of the method: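 IC50 from loss of terbium–BODIPY-FL TR-FRET signal as compounds compete off a fluorescent Cbl-b inhibitor probe (1 uM) for 1 h at RT. Protein: N-Avi-tagged human Cbl-b 36-427 on streptavidin-terbium, 20 mM HEPES pH 7.5 buffer.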
# Human primary T cells [2] = experiment: T cell activation: secreted IL-2; assay type: cell-based; conditions: 48 hours, fold over background normalized to Compound 141A; for IL-2 1 nM: 1 nM compound; for IL-2 10 nM: 10 nM compound; for IL-2 100 nM: 100 nM compound
# Summary of the method: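 IL-2 values are fold over anti-CD3/CD28 background, normalized to a reference compound and sorted into ranges. They come from supernatants of human pan-T cells captured on anti-CD3-coated plates and exposed 48 h, 37° C., to duplicate compound dilutions, measured with cytometric beads.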
# Human primary T cells [3] = experiment: T cell activation: secreted IFN-y; assay type: cell-based; conditions: 48 hours, fold over background normalized to Compound 141A; for IFN-y 1 nM: 1 nM compound; for IFN-y 10 nM: 10 nM compound; for IFN-y 100 nM: 100 nM compound
# Summary of the method: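 Values are binned ranges (A–D) of fold increase over anti-CD3/CD28 background, normalized to a reference compound, for IFN-γ in supernatants measured by bead array. Pan-T cells from donor PBMC or LeukoPaks were stimulated on anti-CD3-coated wells (10 μg/mL coating) in serum-free medium with compound for 48 h at 37 °C.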
# Human primary T cells [4] = experiment: T cell activation: CD69 surface expression by flow cytometry; assay type: cell-based; conditions: fold over anti-CD3 stimulated background normalized to Compound 141A; for CD69 1 nM: 1 nM compound; for CD69 10 nM: 10 nM compound; for CD69 100 nM: 100 nM compound
# Summary of the method: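 Read-out is flow-cytometric CD69 surface staining, expressed as fold increase over anti-CD3-stimulated background and normalized to Compound 141A. Human pan T cells from PBMC or LeukoPaks were plated on OKT3-coated wells in serum-free XVivo-15. Compound dilutions were added for 48 h at 37° C, 5% CO2.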
# Chain of Cbl-b (36-427 aa truncated form, N-terminus Avi-tag) (Q13191 36-427): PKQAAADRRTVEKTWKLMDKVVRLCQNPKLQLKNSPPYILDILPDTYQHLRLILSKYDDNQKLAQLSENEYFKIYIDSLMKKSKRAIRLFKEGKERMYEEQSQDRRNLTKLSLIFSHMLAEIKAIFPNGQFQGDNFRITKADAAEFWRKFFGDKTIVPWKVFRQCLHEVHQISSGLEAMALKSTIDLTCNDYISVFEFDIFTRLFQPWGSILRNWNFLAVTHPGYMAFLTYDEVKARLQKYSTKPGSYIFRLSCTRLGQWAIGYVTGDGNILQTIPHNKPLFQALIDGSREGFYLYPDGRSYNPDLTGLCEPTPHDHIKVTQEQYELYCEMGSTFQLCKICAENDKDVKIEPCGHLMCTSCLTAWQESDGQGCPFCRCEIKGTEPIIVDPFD
Structure (SMILES),IC50 [1] [nM],IL-2 1 nM (Human primary T cells [2]),IL-2 10 nM (Human primary T cells [2]),IL-2 100 nM (Human primary T cells [2]),IFN-y 1 nM (Human primary T cells [3]),IFN-y 10 nM (Human primary T cells [3]),IFN-y 100 nM (Human primary T cells [3]),CD69 1 nM (Human primary T cells [4]),CD69 10 nM (Human primary T cells [4]),CD69 100 nM (Human primary T cells [4])
"C[C@H]1CCCN(Cc2cc3c(c(C(F)(F)F)c2)CN(c2cc(C4(Cc5nncn5C)COC4)cc(NC4CC(C#N)C4)n2)C3=O)C1.O=C(O)C(F)(F)F (stereo partly drawn) [Compound 190, (S)-3-((4-(3-((4-methyl-4H-1,2,4-triazol-3-yl)methyl)oxetan-3-yl)-6-(6-((3-methylpiperidin-1-yl)methyl)-1-oxo-4-(trifluoromethyl)isoindolin-2-yl)pyridin-2-yl)amino)cyclobutane-1-carbonitrile; trifluoroacetic acid]",5.01 to 20,C (values between 0.10 and 0.30: range “C”),C (values between 0.10 and 0.30: range “C”),C (values between 0.10 and 0.30: range “C”),C (values between 0.10 and 0.30: range “C”),B (values between 0.31 and 1.00: range “B;”),B (values between 0.31 and 1.00: range “B;”),C (values between 0.30 and 0.60: range “C”),C (values between 0.30 and 0.60: range “C”),B (values between 0.61 and 0.80: range “B;”)
"C[C@H]1CCCN(Cc2cc3c(c(C(F)(F)F)c2)CN(c2cc(C4(Cc5nncn5C)COC4)cc(SCCC(=O)O)n2)C3=O)C1 [Compound 124, 3-[(4-{3-[(4-methyl-1,2,4-triazol-3-yl)methyl]oxetan-3-yl}-6-(6-{[(3S)-3-methylpiperidin-1-yl]methyl}-1-oxo-4-(trifluoromethyl)-3H-isoindol-2-yl)pyridin-2-yl)sulfanyl]propanoic acid]",100 to 1000,C (values between 0.10 and 0.30: range “C”),C (values between 0.10 and 0.30: range “C”),C (values between 0.10 and 0.30: range “C”),C (values between 0.10 and 0.30: range “C”),C (values between 0.10 and 0.30: range “C”),C (values between 0.10 and 0.30: range “C”),–,C (values between 0.30 and 0.60: range “C”),C (values between 0.30 and 0.60: range “C”)
"CCSc1cc(C2(c3nncn3C)CC(C)C2)cc(N2Cc3c(cc(CN4CCC[C@H](C)C4)cc3C(F)(F)F)C2=O)n1 (stereo partly drawn) [Compound 113, 2-[6-(ethylsulfanyl)-4-[(1s,3r)-3-methyl-1-(4-methyl-1,2,4-triazol-3-yl)cyclobutyl]pyridin-2-yl]-6-{[(3S)-3-methylpiperidin-1-yl]methyl}-4-(trifluoromethyl)-3H-isoindol-1-one]",20 to 100,C (values between 0.10 and 0.30: range “C”),B (values between 0.31 and 0.79: range “B”),B (values between 0.31 and 0.79: range “B”),C (values between 0.10 and 0.30: range “C”),B (values between 0.31 and 1.00: range “B;”),B (values between 0.31 and 1.00: range “B;”),–,B (values between 0.61 and 0.80: range “B;”),A (values between 0.81 and 1.10: range “A”)
"CC(C)C(C#N)Oc1cc(C2(Cc3nncn3C)COC2)cc(N2Cc3c(cc(CN4CCC[C@H](C)C4)cc3C(F)(F)F)C2=O)n1.O=CO (stereo partly drawn) [Compound 123, 3-methyl-2-[(4-{3-[(4-methyl-1,2,4-triazol-3-yl)methyl]oxetan-3-yl}-6-(6-{[(3S)-3-methylpiperidin-1-yl]methyl}-1-oxo-4-(trifluoromethyl)-3H-isoindol-2-yl)pyridin-2-yl)oxy]butanenitrile; formic acid]",1 to 5,C (values between 0.10 and 0.30: range “C”),C (values between 0.10 and 0.30: range “C”),B (values between 0.31 and 0.79: range “B”),C (values between 0.10 and 0.30: range “C”),C (values between 0.10 and 0.30: range “C”),B (values between 0.31 and 1.00: range “B;”),–,C (values between 0.30 and 0.60: range “C”),B (values between 0.61 and 0.80: range “B;”)

# Continued, in another order:
IC50 [1] [nM],Structure (SMILES),IL-2 1 nM (Human primary T cells [2]),IL-2 10 nM (Human primary T cells [2]),IL-2 100 nM (Human primary T cells [2]),IFN-y 1 nM (Human primary T cells [3]),IFN-y 10 nM (Human primary T cells [3]),IFN-y 100 nM (Human primary T cells [3]),CD69 1 nM (Human primary T cells [4]),CD69 10 nM (Human primary T cells [4]),CD69 100 nM (Human primary T cells [4])
5.01 to 20,"C=CC(=O)NCCNc1cc(C2(Cc3nncn3C)COC2)cc(N2Cc3c(cc(CN4CCC[C@H](C)C4)cc3C(F)(F)F)C2=O)n1 [Compound 125, (S)-N-(2-((4-(3-((4-methyl-4H-1,2,4-triazol-3-yl)methyl)oxetan-3-yl)-6-(6-((3-methylpiperidin-1-yl)methyl)-1-oxo-4-(trifluoromethyl)isoindolin-2-yl)pyridin-2-yl)amino)ethyl)acrylamide]",C (values between 0.10 and 0.30: range “C”),C (values between 0.10 and 0.30: range “C”),B (values between 0.31 and 0.79: range “B”),C (values between 0.10 and 0.30: range “C”),C (values between 0.10 and 0.30: range “C”),B (values between 0.31 and 1.00: range “B;”),–,C (values between 0.30 and 0.60: range “C”),A (values between 0.81 and 1.10: range “A”)
5.01 to 20,"CCNc1cc([C@]2(c3nncn3C)C[C@H](C)C2)cc(N2Cc3ncc(CN4CCC[C@H](C)C4)cc3C2=O)n1 [Compound 176, 6-[6-(ethylamino)-4-[(1r,3s)-3-methyl-1-(4-methyl-1,2,4-triazol-3-yl)cyclobutyl]pyridin-2-yl]-3-{[(3S)-3-methylpiperidin-1-yl]methyl}-7H-pyrrolo[3,4-b]pyridin-5-one]",D (values between 0.01 and 0.09: range “D.”),C (values between 0.10 and 0.30: range “C”),B (values between 0.31 and 0.79: range “B”),C (values between 0.10 and 0.30: range “C”),B (values between 0.31 and 1.00: range “B;”),B (values between 0.31 and 1.00: range “B;”),C (values between 0.30 and 0.60: range “C”),C (values between 0.30 and 0.60: range “C”),B (values between 0.61 and 0.80: range “B;”)
5.01 to 20,"CCNc1cc(C2(Cc3nncn3C)COC2)cc(N2Cc3c(cc(CN4CCC[C@H](CSC)C4)cc3C(F)(F)F)C2=O)n1 [Compound 111, 2-[6-(ethylamino)-4-{3-[(4-methyl-1,2,4-triazol-3-yl)methyl]oxetan-3-yl}pyridin-2-yl]-6-{[(3S)-3-[(methylsulfanyl)methyl]piperidin-1-yl]methyl}-4-(trifluoromethyl)-3H-isoindol-1-one]",C (values between 0.10 and 0.30: range “C”),B (values between 0.31 and 0.79: range “B”),B (values between 0.31 and 0.79: range “B”),B (values between 0.31 and 1.00: range “B;”),B (values between 0.31 and 1.00: range “B;”),B (values between 0.31 and 1.00: range “B;”),–,B (values between 0.61 and 0.80: range “B;”),A (values between 0.81 and 1.10: range “A”)
